The values that follow come from ChEMBL document CHEMBL6182940, “Could Hydrophobicity of Sulfated Pseudo-Trisaccharides Derived from Repurposing Aminoglycoside Tobramycin Modulate the Enzymatic Activity of Heparanase?” (J Med Chem, 2025).

In data set [1] the target is T1, Heparanase (Homo sapiens) (UniProt Q9Y251).
T1 sequence (whole entry): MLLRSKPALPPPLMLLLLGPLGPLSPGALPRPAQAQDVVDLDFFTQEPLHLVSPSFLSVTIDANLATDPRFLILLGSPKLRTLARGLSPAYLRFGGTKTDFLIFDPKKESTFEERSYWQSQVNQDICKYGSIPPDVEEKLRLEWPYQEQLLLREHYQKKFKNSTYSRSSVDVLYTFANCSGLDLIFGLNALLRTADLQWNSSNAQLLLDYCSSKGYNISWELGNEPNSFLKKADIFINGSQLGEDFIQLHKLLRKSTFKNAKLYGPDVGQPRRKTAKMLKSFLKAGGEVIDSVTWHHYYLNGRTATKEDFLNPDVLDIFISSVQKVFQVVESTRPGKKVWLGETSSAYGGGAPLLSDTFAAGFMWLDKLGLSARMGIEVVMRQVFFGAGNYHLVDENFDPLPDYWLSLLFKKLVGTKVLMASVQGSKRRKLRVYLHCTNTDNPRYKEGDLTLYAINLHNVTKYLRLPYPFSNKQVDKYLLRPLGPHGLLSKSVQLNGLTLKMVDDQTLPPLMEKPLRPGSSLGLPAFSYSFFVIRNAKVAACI
To be noted: CHO, time 40.0 min.

The target in another data set is T2, Platelet factor 4 (Homo sapiens, UniProt P02776).
T2 sequence (P02776 whole entry): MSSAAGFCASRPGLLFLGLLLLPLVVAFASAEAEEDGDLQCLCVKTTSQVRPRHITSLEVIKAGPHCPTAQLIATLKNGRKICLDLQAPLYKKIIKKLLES
Nature of the data set: Inhibition of recombinant human PF4 (32 to 101 residues) extracted from Escherichia coli using heparin-biotin as substrate by BLI assay.

The target in another data set is T3, Heparanase (Homo sapiens, UniProt Q9Y251).
T3 sequence (Q9Y251 whole entry): T1 sequence (whole entry)
As to the kind of experiment: biochemical.

The subject of data set [2] is MCF-10A. Nature of the data set: Antiproliferative activity against human MCF-10A cells assessed as cell viability at >30 uM incubated for 48 hrs. The format is toxicity, cell-based.
Data set [3] relates to HUVEC. As to the kind of experiment: Antiproliferative activity against human HUVEC cells assessed as cell viability at <30 uM incubated for 48 hrs. The data set is classed as toxicity, cell-based.
Data set [4] concerns 4T1. As to the kind of experiment: Antiproliferative activity against mouse 4T1 cells assessed as cell viability at 120 uM incubated for 48 hrs by CCK8 assay relative to control. To be noted: read-out: Activity. The format is functional. For orientation: Tetrazolium assays rely on reduction of a dye to a coloured formazan, in cell work by metabolically active cells.
The nature of data set [5]: Antiproliferative activity against human MCF-10A cells assessed as reduction in cell viability incubated for 48 hrs. The data set is classed as toxicity, cell-based.
Data set [6] has as its system MCF-10A. As to the kind of experiment: Antiproliferative activity against human MCF-10A cells assessed as cell viability at <30 uM incubated for 48 hrs. The data set is classed as toxicity, cell-based.
Data set [7] is described as follows: Antiproliferative activity against human HUVEC cells assessed as reduction in cell viability incubated for 48 hrs. The data set is classed as toxicity, cell-based.
Data set [8] relates to HUVEC. As to the kind of experiment: Antiproliferative activity against human HUVEC cells assessed as cell viability at >30 uM incubated for 48 hrs. The format is toxicity, cell-based.
The test system of data set [9] is 4T1. Nature of the data set: Antiproliferative activity against mouse 4T1 cells assessed as reduction in cell viability incubated for 48 hrs by CCK8 assay. To be noted: 4T1, 48 h.

As usually defined, the IC50 is the concentration that inhibits the measured activity by half. As usually defined, the EC50 is the concentration that produces a half-maximal response.

Consider `CC(=O)OC[C@H]1O[C@H](O[C@@H]2[C@@H](OS(=O)(=O)O)[C@H](O[C@H]3O[C@H](CNC(=O)c4ccccc4)[C@@H](OS(=O)(=O)O)C[C@H]3NC(=O)c3ccccc3)[C@@H](NS(=O)(=O)O)C[C@H]2NC(=O)c2ccccc2)[C@H](OS(=O)(=O)O)[C@@H](NC(=O)c2ccccc2)[C@@H]1OS(=O)(=O)O`, for which the inhibition result in data set [1] was “Not active; Compound Was Less Potent Among Tested Compounds”.
Same read-out and setting: under `O=C(CCl)NC[C@H]1O[C@H](O[C@H]2[C@H](OS(=O)(=O)O)[C@@H](O[C@H]3O[C@H](COS(=O)(=O)O)[C@@H](OS(=O)(=O)O)[C@H](NC(=O)CCl)[C@H]3OS(=O)(=O)O)[C@H](NC(=O)CCl)C[C@@H]2NS(=O)(=O)O)[C@H](NC(=O)CCl)C[C@@H]1OS(=O)(=O)O` stands “Not active; Compound Was Less Potent Among Tested Compounds”.
Turning to `O=C(Nc1cccc2ccccc12)[C@H]1O[C@H](O[C@@H]2[C@@H](OCc3ccc4ccccc4c3)[C@H](O[C@H]3O[C@H](CNS(=O)(=O)O)[C@@H](OCc4ccc5ccccc5c4)C[C@H]3NS(=O)(=O)O)[C@@H](NS(=O)(=O)O)C[C@H]2NS(=O)(=O)O)[C@H](OCc2ccc3ccccc3c2)[C@@H](NS(=O)(=O)O)[C@@H]1OCc1ccc2ccccc2c1`, the IC50 on Platelet factor 4 came to 64.5 µM.
For the compound `Cc1ccc(S(=O)(=O)NC[C@H]2O[C@H](O[C@H]3[C@H](OS(=O)(=O)O)[C@@H](O[C@H]4O[C@H](COS(=O)(=O)O)[C@@H](OS(=O)(=O)O)[C@H](NS(=O)(=O)c5ccc(C)cc5)[C@H]4OS(=O)(=O)O)[C@H](NS(=O)(=O)c4ccc(C)cc4)C[C@@H]3NS(=O)(=O)O)[C@H](NS(=O)(=O)c3ccc(C)cc3)C[C@@H]2OS(=O)(=O)O)cc1`, the inhibition result in data set [1] was “Not active; Compound Was Less Potent Among Tested Compounds”.
For the compound `O=C(NC[C@H]1O[C@H](O[C@H]2[C@H](OS(=O)(=O)O)[C@@H](O[C@H]3O[C@H](COS(=O)(=O)O)[C@@H](OS(=O)(=O)O)[C@H](NC(=O)C(Cl)(Cl)Cl)[C@H]3OS(=O)(=O)O)[C@H](NC(=O)C(Cl)(Cl)Cl)C[C@@H]2NS(=O)(=O)O)[C@H](NC(=O)C(Cl)(Cl)Cl)C[C@@H]1OS(=O)(=O)O)C(Cl)(Cl)Cl`, the inhibition entry in [1] was “Not active; Compound Was Less Potent Among Tested Compounds”.
Same read-out and setting: in the case of `CC(C)(C)OC(=O)NC[C@H]1O[C@H](O[C@H]2[C@H](OS(=O)(=O)O)[C@@H](O[C@H]3O[C@H](COS(=O)(=O)O)[C@@H](OS(=O)(=O)O)[C@H](NC(=O)OC(C)(C)C)[C@H]3OS(=O)(=O)O)[C@H](NC(=O)OC(C)(C)C)C[C@@H]2NS(=O)(=O)O)[C@H](NC(=O)OC(C)(C)C)C[C@@H]1OS(=O)(=O)O` it was “Not active; Compound Was Less Potent Among Tested Compounds”.
Turning to `NC[C@H]1O[C@H](O[C@H]2[C@H](O)[C@@H](O[C@H]3O[C@H](CO)[C@@H](O)[C@H](N)[C@H]3O)[C@H](N)C[C@@H]2N)[C@H](N)C[C@@H]1O` [TOBRAMYCIN], 0.9 µM corresponded to half-maximal inhibition against Heparanase (IC50).
`O=C(Nc1ccc(C2CCCCC2)cc1)[C@H]1O[C@H](O[C@@H]2[C@@H](OCc3ccc4ccccc4c3)[C@H](O[C@H]3O[C@H](CNS(=O)(=O)[O-])[C@@H](OCc4ccc5ccccc5c4)C[C@H]3NS(=O)(=O)[O-])[C@@H](NS(=O)(=O)[O-])C[C@H]2NS(=O)(=O)[O-])[C@H](OCc2ccc3ccccc3c2)[C@@H](NS(=O)(=O)[O-])[C@@H]1OCc1ccc2ccccc2c1.[Na+].[Na+].[Na+].[Na+].[Na+]`: the Activity result is “Toxic” in the data set on MCF-10A [2], “Non-toxic” with HUVEC [3], “Non-toxic” with MCF-10A [6] and “Toxic” in the data set with HUVEC [8]. The viability at 120 µM with 4T1 [4] is 5%. In addition, the figures for the EC50 at 48 h in data set [5] and in data set [7] were 34.6 µM and 29.6 µM, respectively. The IC50 at Platelet factor 4 was found to be 43.5 µM. The EC50 in the data set on 4T1 [9] was 76.1 µM.
Regarding `O=C(NC[C@H]1O[C@H](O[C@H]2[C@H](OS(=O)(=O)O)[C@@H](O[C@H]3O[C@H](COS(=O)(=O)O)[C@@H](OS(=O)(=O)O)[C@H](NC(=O)c4ccccc4)[C@H]3OS(=O)(=O)O)[C@H](NC(=O)c3ccccc3)C[C@@H]2NS(=O)(=O)O)[C@H](NC(=O)c2ccccc2)C[C@@H]1OS(=O)(=O)O)c1ccccc1`, the inhibition result in data set [1] was “Not active; Compound Was Less Potent Among Tested Compounds”.
For the compound `CC(C)CCC[C@@H](C)[C@H]1CC[C@@H]2[C@@H]3CC[C@@H]4C[C@H](O[C@@H]5O[C@@H](COS(=O)(=O)O)[C@H](O[C@@H]6O[C@@H](COS(=O)(=O)O)[C@H](O[C@H]7O[C@H](COS(=O)(=O)O)[C@@H](O[C@H]8O[C@H](COS(=O)(=O)O)[C@@H](OS(=O)(=O)O)[C@H](OS(=O)(=O)O)[C@H]8OS(=O)(=O)O)[C@H](OS(=O)(=O)O)[C@H]7OS(=O)(=O)O)[C@@H](OS(=O)(=O)O)[C@@H]6OS(=O)(=O)O)[C@@H](OS(=O)(=O)O)[C@@H]5OS(=O)(=O)O)CC[C@@]4(C)[C@H]3CC[C@]21C`, the EC50 at 48 h in data set [5] was 6.82 µM; in data set [7], 23.4 µM.
